From PubChem BioAssay (NCI)
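Results reflect a 48-hour exposure of cells in 96-well plates to compound at five concentrations. GI50: concentration for 50% inhibition of growth. TGI: total growth inhibition.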

How the values were obtained:
Experiment in all cases: DTP human tumour cell line panel, 48 h
NCI-H226 lung = system: NCI-H226 lung
SK-MEL-2 melanoma = system: SK-MEL-2 melanoma
T-47D breast = system: T-47D breast
HS 578T breast = system: HS 578T breast
NCI-H522 lung = system: NCI-H522 lung
TK-10 renal = system: TK-10 renal
PC-3 prostate = system: PC-3 prostate
OVCAR-5 ovarian = system: OVCAR-5 ovarian
LOX IMVI melanoma = system: LOX IMVI melanoma
HOP-62 NSCLC = system: HOP-62 NSCLC
U251 CNS = system: U251 CNS
SF-539 CNS = system: SF-539 CNS
NCI-H460 lung = system: NCI-H460 lung
M14 melanoma = system: M14 melanoma
MDA-MB-231 breast = system: MDA-MB-231 breast
OVCAR-8 ovarian = system: OVCAR-8 ovarian
MCF7 breast = system: MCF7 breast
HCT-15 colon = system: HCT-15 colon
SNB-75 CNS = system: SNB-75 CNS
A549 NSCLC = system: A549 NSCLC
HCC-2998 colon = system: HCC-2998 colon
A498 renal = system: A498 renal
HL-60(TB) leukemia = system: HL-60(TB) leukemia
SR leukemia = system: SR leukemia
SF-295 CNS = system: SF-295 CNS
UO-31 renal = system: UO-31 renal
EKVX NSCLC = system: EKVX NSCLC
SNB-19 CNS = system: SNB-19 CNS
CCRF-CEM leukemia = system: CCRF-CEM leukemia
KM12 colon = system: KM12 colon
HT29 colon = system: HT29 colon
MALME-3M melanoma = system: MALME-3M melanoma
SN12C renal = system: SN12C renal
786-0 renal = system: 786-0 renal
OVCAR-4 ovarian = system: OVCAR-4 ovarian
NCI-H23 lung = system: NCI-H23 lung
DU-145 prostate = system: DU-145 prostate
SW-620 colon = system: SW-620 colon
OVCAR-3 ovarian = system: OVCAR-3 ovarian
UACC-62 melanoma = system: UACC-62 melanoma
RXF 393 renal = system: RXF 393 renal
UACC-257 melanoma = system: UACC-257 melanoma
SK-OV-3 ovarian = system: SK-OV-3 ovarian
NCI/ADR-RES ovarian = system: NCI/ADR-RES ovarian
HOP-92 NSCLC = system: HOP-92 NSCLC
SK-MEL-28 melanoma = system: SK-MEL-28 melanoma
ACHN renal = system: ACHN renal
IGROV1 ovarian = system: IGROV1 ovarian
MOLT-4 leukemia = system: MOLT-4 leukemia
MDA-MB-435 = system: MDA-MB-435
RPMI-8226 leukemia = system: RPMI-8226 leukemia
SF-268 CNS = system: SF-268 CNS
K-562 leukemia = system: K-562 leukemia
COLO 205 colon = system: COLO 205 colon
BT-549 breast = system: BT-549 breast
HCT-116 colon = system: HCT-116 colon
SK-MEL-5 melanoma = system: SK-MEL-5 melanoma

CCCn1cc(/C=N\N=C2\C(=O)Nc3ccc(C)cc32)c2ccccc21
GI50 (NCI-H226 lung): 2.95 µM
TGI (NCI-H226 lung): 20.6 µM
GI50 (SK-MEL-2 melanoma): 2.42 µM
TGI (SK-MEL-2 melanoma): 8.03 µM
GI50 (T-47D breast): 0.416 µM
TGI (T-47D breast): 18.4 µM
GI50 (HS 578T breast): 11.3 µM
TGI (HS 578T breast): > 100 µM
GI50 (NCI-H522 lung): 1.81 µM
TGI (NCI-H522 lung): 6.59 µM
GI50 (TK-10 renal): 11.1 µM
TGI (TK-10 renal): > 100 µM
GI50 (PC-3 prostate): 1.83 µM
TGI (PC-3 prostate): 5.17 µM
GI50 (OVCAR-5 ovarian): 4.04 µM
TGI (OVCAR-5 ovarian): 25.8 µM
GI50 (LOX IMVI melanoma): 1.26 µM
TGI (LOX IMVI melanoma): 3.06 µM
GI50 (HOP-62 NSCLC): 4.17 µM
TGI (HOP-62 NSCLC): 25 µM
GI50 (U251 CNS): 3.51 µM
TGI (U251 CNS): 17.3 µM
GI50 (SF-539 CNS): 2.69 µM
TGI (SF-539 CNS): 17.1 µM
GI50 (NCI-H460 lung): 2.17 µM
TGI (NCI-H460 lung): 10.6 µM
GI50 (M14 melanoma): 1.92 µM
TGI (M14 melanoma): 4.7 µM
GI50 (MDA-MB-231 breast): 1.81 µM
TGI (MDA-MB-231 breast): 7.4 µM
GI50 (OVCAR-8 ovarian): 5.41 µM
TGI (OVCAR-8 ovarian): > 100 µM
GI50 (MCF7 breast): 1.54 µM
TGI (MCF7 breast): 15.5 µM
GI50 (HCT-15 colon): 2.63 µM
TGI (HCT-15 colon): 42.2 µM
GI50 (SNB-75 CNS): 2.31 µM
TGI (SNB-75 CNS): 46 µM
GI50 (A549 NSCLC): 7.18 µM
TGI (A549 NSCLC): 39.6 µM
GI50 (HCC-2998 colon): 2.09 µM
TGI (HCC-2998 colon): 5.14 µM
GI50 (A498 renal): 1.37 µM
TGI (A498 renal): 7.5 µM
GI50 (HL-60(TB) leukemia): 1.31 µM
TGI (HL-60(TB) leukemia): 4.8 µM
GI50 (SR leukemia): 0.521 µM
TGI (SR leukemia): 8.72 µM
GI50 (SF-295 CNS): 8.41 µM
TGI (SF-295 CNS): 96.6 µM
GI50 (UO-31 renal): 2.28 µM
TGI (UO-31 renal): 61.8 µM
GI50 (EKVX NSCLC): 2.36 µM
TGI (EKVX NSCLC): > 100 µM
GI50 (SNB-19 CNS): 4.24 µM
TGI (SNB-19 CNS): > 100 µM
GI50 (CCRF-CEM leukemia): 1.94 µM
TGI (CCRF-CEM leukemia): > 100 µM
GI50 (KM12 colon): 3.22 µM
TGI (KM12 colon): 19.7 µM
GI50 (HT29 colon): 3.4 µM
TGI (HT29 colon): > 100 µM
GI50 (MALME-3M melanoma): 1.88 µM
TGI (MALME-3M melanoma): 6.03 µM
GI50 (SN12C renal): 3.2 µM
TGI (SN12C renal): 75.9 µM
GI50 (786-0 renal): 5.94 µM
TGI (786-0 renal): 71.2 µM
GI50 (OVCAR-4 ovarian): 0.935 µM
TGI (OVCAR-4 ovarian): 25.6 µM
GI50 (NCI-H23 lung): 3.13 µM
TGI (NCI-H23 lung): 38.2 µM
GI50 (DU-145 prostate): 3.88 µM
TGI (DU-145 prostate): 40.6 µM
GI50 (SW-620 colon): 2.97 µM
TGI (SW-620 colon): 35.3 µM
GI50 (OVCAR-3 ovarian): 1.36 µM
TGI (OVCAR-3 ovarian): 5.11 µM
GI50 (UACC-62 melanoma): 2.24 µM
TGI (UACC-62 melanoma): 12.1 µM
GI50 (RXF 393 renal): 2.17 µM
TGI (RXF 393 renal): 7.94 µM
GI50 (UACC-257 melanoma): 12.3 µM
TGI (UACC-257 melanoma): 66.6 µM
GI50 (SK-OV-3 ovarian): 11.7 µM
TGI (SK-OV-3 ovarian): 67.1 µM
GI50 (NCI/ADR-RES ovarian): 6.39 µM
TGI (NCI/ADR-RES ovarian): 89.9 µM
GI50 (HOP-92 NSCLC): 1.87 µM
TGI (HOP-92 NSCLC): 6.57 µM
GI50 (SK-MEL-28 melanoma): 4.7 µM
TGI (SK-MEL-28 melanoma): 36.9 µM
GI50 (ACHN renal): 3.56 µM
TGI (ACHN renal): > 100 µM
GI50 (IGROV1 ovarian): 3.38 µM
TGI (IGROV1 ovarian): 63.1 µM
GI50 (MOLT-4 leukemia): 0.682 µM
TGI (MOLT-4 leukemia): 4.54 µM
GI50 (MDA-MB-435): 1.5 µM
TGI (MDA-MB-435): 2.96 µM
GI50 (RPMI-8226 leukemia): 1.33 µM
TGI (RPMI-8226 leukemia): 3.96 µM
GI50 (SF-268 CNS): 3.33 µM
TGI (SF-268 CNS): 28 µM
GI50 (K-562 leukemia): 2.22 µM
TGI (K-562 leukemia): 20.5 µM
GI50 (COLO 205 colon): 1.25 µM
TGI (COLO 205 colon): 3.06 µM
GI50 (BT-549 breast): 1.79 µM
TGI (BT-549 breast): 6.33 µM
GI50 (HCT-116 colon): 1.75 µM
TGI (HCT-116 colon): 4.17 µM
GI50 (SK-MEL-5 melanoma): 2.86 µM
TGI (SK-MEL-5 melanoma): 13.5 µM
